# Assay results taken from US20090105283A1, “3-HYDROQUINAZOLIN-4-ONE DERIVATIVES FOR USE AS STEAROYL CoA DESATURASE INHIBITORS” (priority 2007, published 2009).
# Molecular target: T1, stearoyl-CoA desaturase (SCD) (Rattus norvegicus, UniProt P07308)
# T1 construct: The microsomes were quickly thawed and added to assay buffer so that a concentration of 0.4 mg/ml was achieved; from tissue
# T1 sequence (P07308 1-358): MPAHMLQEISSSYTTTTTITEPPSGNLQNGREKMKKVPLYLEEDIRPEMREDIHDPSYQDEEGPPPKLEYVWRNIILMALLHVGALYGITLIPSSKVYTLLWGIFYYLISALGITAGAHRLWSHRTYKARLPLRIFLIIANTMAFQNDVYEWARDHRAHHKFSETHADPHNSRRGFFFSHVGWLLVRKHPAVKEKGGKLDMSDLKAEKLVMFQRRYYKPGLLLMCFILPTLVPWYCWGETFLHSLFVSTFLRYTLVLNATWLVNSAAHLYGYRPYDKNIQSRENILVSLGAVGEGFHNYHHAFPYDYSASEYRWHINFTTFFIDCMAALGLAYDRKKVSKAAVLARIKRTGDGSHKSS
# Experiment: SCD assay with rat liver microsomes ([3H]stearoyl CoA, adapted from Talamo and Bloch)
# Type: biochemical
# Conditions: [3H]stearoyl CoA substrate
# Summary of the method: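 Liver microsomes came from diet-induced male Sprague Dawley rats and were used at 0.2 mg/ml final. Assay buffer was Tris pH 7.2 with NADH, ATP, CoA, MgCl2 and 0.1% BSA. Compounds were preincubated 30 min, then reacted 45 min at room temperature with [3H]stearoyl-CoA; after TCA stop and Bio-Bead cleanup, supernatant radioactivity was counted by scintillation.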
# [1] = Table 1, rat liver microsomes 0.2 mg/ml assay final, 30 min preincubation, 45 min reaction, room temperature
# [2] = Table 2 (Example 21, procedures of Example 20), rat liver microsomes
Compound,IC50 [1] [µM],IC50 [2] [µM]
"COc1ccccc1OCC(=O)Nc1ccc2ncn(Cc3ccc(Cl)c(Cl)c3)c(=O)c2c1 [XXV, N-{3-[(3,4-dichlorophenyl)methyl]-4-oxo(3-hydroquinazolin-6-yl)}-2-(2-methoxyphenoxy)acetamide]",0.78,
"O=C(COc1ccccc1F)Nc1ccc2ncn(Cc3ccc(Cl)c(Cl)c3)c(=O)c2c1 [XXVI, N-{3-[(3,4-dichlorophenyl)methyl]-4-oxo(3-hydroquinazolin-6-yl)}-2-(2-fluorophenoxy)acetamide]",3.69,
"O=C(COc1cccc(F)c1)Nc1ccc2ncn(Cc3ccc(Cl)c(Cl)c3)c(=O)c2c1 [XXVII, N-{3-[(3,4-dichlorophenyl)methyl]-4-oxo(3-hydroquinazolin-6-yl)}-2-(3-fluorophenoxy)acetamide]",2.01,
"O=C(COc1ccc(F)cc1F)Nc1ccc2ncn(Cc3ccc(Cl)c(Cl)c3)c(=O)c2c1 [XXVIII, N-{3-[(3,4-dichlorophenyl)methyl]-4-oxo(3-hydroquinazolin-6-yl)}-2-(2,4-difluorophenoxy)acetamide]",3.43,
"O=C(COc1cccc(Cl)c1Cl)Nc1ccc2ncn(Cc3ccc(Cl)c(Cl)c3)c(=O)c2c1 [XXX, N-{3-[(3,4-dichlorophenyl)methyl]-4-oxo(3-hydroquinazolin-6-yl)}-2-(2,3-dichlorophenoxy)acetamide]",3.78,
"O=C(COc1ccccc1[N+](=O)[O-])Nc1ccc2ncn(Cc3ccc(Cl)c(Cl)c3)c(=O)c2c1 [XXXI, N-{3-[(3,4-dichlorophenyl)methyl]-4-oxo(3-hydroquinazolin-6-yl)}-2-(2-nitrophenoxy)acetamide]",15,
"O=C(COc1ccc2ccccc2c1)Nc1ccc2ncn(Cc3ccc(Cl)c(Cl)c3)c(=O)c2c1 [XXXII, N-{3-[(3,4-dichlorophenyl)methyl]-4-oxo(3-hydroquinazolin-6-yl)}-2-(2-naphthyloxy)acetamide]",2.85,
"O=C(CCOc1ccccc1)Nc1ccc2ncn(Cc3ccc(Cl)c(Cl)c3)c(=O)c2c1 [XXXIII, N-{3-[(3,4-dichlorophenyl)methyl]-4-oxo(3-hydroquinazolin-6-yl)}-3-phenoxypropanamide]",6.88,
"CC(Oc1ccccc1Cl)C(=O)Nc1ccc2ncn(Cc3ccc(Cl)c(Cl)c3)c(=O)c2c1 (stereo not shown) [XXXIV, N-{3-[(3,4-dichlorophenyl)methyl]-4-oxo(3-hydroquinazolin-6-yl)}-2-(2-chlorophenoxy)propanamide]",2.1,
"O=C(COc1ccccc1)Nc1ccc2ncn(Cc3ccc(Cl)c(F)c3)c(=O)c2c1 [XXXIX, N-{3-[(4-chloro-3-fluorophenyl)methyl]-4-oxo(3-hydroquinazolin-6-yl)}-2-phenoxyacetamide]",6.1,
"O=C(COc1cccc2nsnc12)Nc1ccc2ncn(Cc3ccc(Cl)c(Cl)c3)c(=O)c2c1 [XXXV, 2-benzo[c]1,2,5-thiadiazol-4-yloxy-N-{3-[(3,4-dichlorophenyl)methyl]-4-oxo(3-hydroquinazolin-6-yl)}acetamide]",21,
"O=C(COc1cccnc1)Nc1ccc2ncn(Cc3ccc(Cl)c(Cl)c3)c(=O)c2c1 [XXXVI, N-{3-[(3,4-dichlorophenyl)methyl]-4-oxo(3-hydroquinazolin-6-yl)}-2-(3-pyridyloxy)acetamide]",3.1,
"O=C(CSc1ccncc1)Nc1ccc2ncn(Cc3ccc(Cl)cc3)c(=O)c2c1 [XXXVII, N-{3-[(4-chlorophenyl)methyl]-4-oxo(3-hydroquinazolin-6-yl)}-2-(4-pyridylthio)acetamide]",7.3,
"O=C(COc1ccccc1)Nc1ccc2ncn(Cc3ccc(Br)cc3)c(=O)c2c1 [XXXVIII, N-{3-[(4-bromophenyl)methyl]-4-oxo(3-hydroquinazolin-6-yl)}-2-phenoxyacetamide]",15,
"CC(=O)OCC(=O)Nc1ccc2ncn(Cc3ccc(F)c(F)c3)c(=O)c2c1 [compound 1, 2-(3-(3,4-difluorobenzyl)-4-oxo-3,4-dihydroquinazolin-6-ylamino)-2-oxoethyl acetate]",,2.1
"O=C(CO)Nc1ccc2ncn(Cc3ccc(F)c(F)c3)c(=O)c2c1 [compound 2, N-(3-(3,4-difluorobenzyl)-4-oxo-3,4-dihydroquinazolin-6-yl)-2-hydroxyacetamide]",,2.4
"CC(=O)OCC(=O)Nc1ccc2ncn(Cc3ccc(Cl)cc3)c(=O)c2c1 [compound 3, 2-(3-(4-chlorobenzyl)-4-oxo-3,4-dihydroquinazolin-6-ylamino)-2-oxoethyl acetate]",,0.94
"O=C(CO)Nc1ccc2ncn(Cc3ccc(Cl)cc3)c(=O)c2c1 [compound 4, N-(3-(4-chlorobenzyl)-4-oxo-3,4-dihydroquinazolin-6-yl)-2-hydroxyacetamide]",,1.2
"O=C(COc1ccccc1)Nc1ccc2ncn(Cc3ccc(Cl)cc3)c(=O)c2c1 [compound 5, N-(3-(4-chlorobenzyl)-4-oxo-3,4-dihydroquinazolin-6-yl)-2-phenoxyacetamide]",,8

Compound,IC50 [1] [µM],IC50 [2] [µM]
"CC(=O)OCC(=O)Nc1ccc2ncn(Cc3ccc(Cl)c(C(F)(F)F)c3)c(=O)c2c1 [compound 6, 2-(3-(4-chloro-3-(trifluoromethyl)benzyl)-4-oxo-3,4-dihydroquinazolin-6-ylamino)-2-oxoethyl acetate]",,0.13
"O=C(CO)Nc1ccc2ncn(Cc3ccc(Cl)c(C(F)(F)F)c3)c(=O)c2c1 [compound 7, N-(3-(4-chloro-3-(trifluoromethyl)benzyl)-4-oxo-3,4-dihydroquinazolin-6-yl)-2-hydroxyacetamide]",,0.19
"Cc1nc2cc(NC(=O)OCc3ccccc3)ccc2c(=O)n1Cc1ccc(Cl)c(Cl)c1 [compound 8, benzyl 3-(3,4-dichlorobenzyl)-2-methyl-4-oxo-3,4-dihydroquinazolin-7-ylcarbamate]",,1.2
"CC(c1ccc(Cl)c(Cl)c1)n1cnc2cc(NC(=O)OCc3ccccc3)ccc2c1=O (stereo not shown) [compound 9, benzyl 3-(1-(3,4-dichlorophenyl)ethyl)-4-oxo-3,4-dihydroquinazolin-7-ylcarbamate]",,0.29
"CC(=O)OCC(=O)Nc1ccc2c(=O)n(C(C)c3ccc(Cl)c(Cl)c3)cnc2c1 (stereo not shown) [compound 10, 2-(3-(1-(3,4-dichlorophenyl)ethyl)-4-oxo-3,4-dihydroquinazolin-7-ylamino)-2-oxoethyl acetate]",,0.13
"CC(c1ccc(Cl)c(Cl)c1)n1cnc2cc(NC(=O)CO)ccc2c1=O (stereo not shown) [compound 11, N-(3-(1-(3,4-dichlorophenyl)ethyl)-4-oxo-3,4-dihydroquinazolin-7-yl)-2-hydroxyacetamide]",,0.17
"COc1cccc(Cn2cnc3ccc(NC(=O)OCc4ccccc4)cc3c2=O)c1 [compound 12, benzyl 3-(3-methoxybenzyl)-4-oxo-3,4-dihydroquinazolin-6-ylcarbamate]",,1.4
"CC(=O)OCC(=O)Nc1ccc2ncn(Cc3ccc(F)c(Cl)c3)c(=O)c2c1 [compound 13, 2-(3-(3-chloro-4-fluorobenzyl)-4-oxo-3,4-dihydroquinazolin-6-ylamino)-2-oxoethyl acetate]",,1.7
"O=C(Nc1ccc2ncn(Cc3ccc(F)c(C(F)(F)F)c3)c(=O)c2c1)OCc1ccccc1 [compound 14, benzyl 3-(4-fluoro-3-(trifluoromethyl)benzyl)-4-oxo-3,4-dihydroquinazolin-6-ylcarbamate]",,0.31
"CC(=O)OCC(=O)Nc1ccc2ncn(Cc3ccc(F)c(C(F)(F)F)c3)c(=O)c2c1 [compound 15, 2-(3-(4-fluoro-3-(trifluoromethyl)benzyl)-4-oxo-3,4-dihydroquinazolin-6-ylamino)-2-oxoethyl acetate]",,0.7
"O=C(CO)Nc1ccc2ncn(Cc3ccc(F)c(C(F)(F)F)c3)c(=O)c2c1 [compound 16, N-(3-(4-fluoro-3-(trifluoromethyl)benzyl)-4-oxo-3,4-dihydroquinazolin-6-yl)-2-hydroxyacetamide]",,0.92
"CC(=O)Nc1ccc2ncn(Cc3ccc(Cl)c(Cl)c3)c(=O)c2c1 [compound 17, N-(3-(3,4-dichlorobenzyl)-4-oxo-3,4-dihydroquinazolin-6-yl)acetamide]",,3.9
"CC(=O)Nc1ccc2ncn(Cc3ccc(F)c(F)c3)c(=O)c2c1 [compound 18, N-(3-(3,4-difluorobenzyl)-4-oxo-3,4-dihydroquinazolin-6-yl)acetamide]",,26
"CC(=O)Nc1ccc2ncn(Cc3ccc(C(F)(F)F)cc3)c(=O)c2c1 [compound 19, N-(4-oxo-3-(4-(trifluoromethyl)benzyl)-3,4-dihydroquinazolin-6-yl)acetamide]",,28
"Cc1ccc(Cn2cnc3ccc(NC(=O)OCc4ccccc4)cc3c2=O)cc1C [compound 20, benzyl 3-(3,4-dimethylbenzyl)-4-oxo-3,4-dihydroquinazolin-6-ylcarbamate]",,0.23
"CC(=O)OCC(=O)Nc1ccc2ncn(Cc3ccc(C)c(C)c3)c(=O)c2c1 [compound 21, 2-(3-(3,4-dimethylbenzyl)-4-oxo-3,4-dihydroquinazolin-6-ylamino)-2-oxoethyl acetate]",,0.47
"Cc1ccc(Cn2cnc3ccc(NC(=O)CO)cc3c2=O)cc1C [compound 22, N-(3-(3,4-dimethylbenzyl)-4-oxo-3,4-dihydroquinazolin-6-yl)-2-hydroxyacetamide]",,0.28
"CC(c1ccc(Cl)c(Cl)c1)n1cnc2ccc(NC(=O)CO)cc2c1=O (stereo not shown) [compound 23, N-(3-(1-(3,4-dichlorophenyl)ethyl)-4-oxo-3,4-dihydroquinazolin-6-yl)-2-hydroxyacetamide]",,0.21
